Data taken from patent publication US4997827A, “Compositions containing 5-α-dihydro-19-norethisterone and derivatives thereof for in vivo inhibition of aromatase” (Medical Foundation of Buffalo, Inc., priority 1989, dated 1991).
“Also recorded” adds a separate entry of the source.

Assays:
rat ovarian aromatase = target: T1, rat ovarian aromatase (Rattus norvegicus, UniProt P22443); experiment: in vivo effect on rat ovarian aromatase activity (3H-water method); settings: for in vivo ovarian aromatase inactivation: Example 7, 50 mg/kg body weight/day, regularly cycling BUF/N rats, compared to sesame oil control; for suppression of the ovarian aromatase activity: 50 mg/kg body weight/day s.c. twice daily for four days, 4-day cycling BUF/N rats
T1 construct: from tissue; host or cells: ovaries of BUF/N inbred female rats, 105,000 x g precipitate of the homogenate
T1 sequence (P22443 1-508): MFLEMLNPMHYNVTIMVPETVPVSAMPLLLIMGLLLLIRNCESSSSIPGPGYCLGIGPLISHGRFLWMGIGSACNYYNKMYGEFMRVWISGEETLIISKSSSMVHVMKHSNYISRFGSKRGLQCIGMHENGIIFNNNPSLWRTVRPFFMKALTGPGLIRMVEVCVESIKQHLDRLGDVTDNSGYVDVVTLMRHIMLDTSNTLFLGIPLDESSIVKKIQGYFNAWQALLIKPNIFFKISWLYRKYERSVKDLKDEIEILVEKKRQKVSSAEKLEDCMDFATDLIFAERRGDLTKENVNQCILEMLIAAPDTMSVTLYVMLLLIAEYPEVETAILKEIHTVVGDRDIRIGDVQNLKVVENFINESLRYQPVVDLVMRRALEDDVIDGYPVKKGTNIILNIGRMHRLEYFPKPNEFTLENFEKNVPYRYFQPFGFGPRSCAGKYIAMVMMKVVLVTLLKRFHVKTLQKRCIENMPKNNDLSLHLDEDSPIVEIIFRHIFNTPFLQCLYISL
Protocol: 5α-DHNET (30 mg/ml sesame oil suspension) was injected s.c. twice daily for four days at a dose of 50 mg/kg body weight/day to BUF/N inbred female rats (50-80 days old) showing regular 4-day estrus cycles starting on the estrus day. The control group received injections of sesame oil in the same manner. Both ovaries were removed 3-4 hours after the final injection. The 105,000×g precipitate fraction of the ovarian homogenate was used for the aromatase assay. Aromatase activity was determined by the ^3 H-water method (F. L. Bellino, S. S. H. Gilani, S. S. Eng, Y. Osawa and W. L. Duax, Biochemistry, 15, 4730-4736 (1976)). The sedimented ovarian enzyme preparation was homogenized in 0.1 M phosphate buffer (pH 7.5) and incubated with [1β-^3 H, 4-^14 C]androstenedione (3.18×10^5 dpm ^3 H, 1.18×10^4 dpm ^14 C, 100.2 ng), NADPH (1 mg) and BSA (5 mg) in 0.1 M phosphate buffer (pH 7.5) in a total volume of 1.5 ml for 30 min at 37° C. Trichloroacetic acid solution (0.2 ml of 10% aqueous solution) was added to stop the enzyme reaction. Activated charcoal was added to the mixture and the spun supernatant was passed through a cotton plugged disposable pipet. The filtrate was counted for simultaneous ^3 H and ^14 C in a liquid scintillation spectrophotometer. The ^3 H-water released from the 1β-^3 H labeled androgen quantitatively corresponds to estrogen formation. The results of the in vivo aromatase suppression assay with 5α-DHNET, 6β-bromoandrostenedione (6β-BRA), and 6α-bromoandrostenedione (6α-BRA) are given in FIGS. 3, 4, and 5, respectively. 5α-DHNET suppressed 67% of the ovarian aromatase, whereas 6β-bromoandrostenedione suppressed 72% and 6α-bromoandrostenedione only an insignificant 10%.
A test of the acetate (C2) and n-butyrate (C4) on the in vivo effect on Ovarian Aromatase Activity was conducted. […] All procedures are the same as described in the above examples. […] The slightly better results obtained with the N-butyrate may be due to its higher solubility in sesame oil, indicating a higher retention in the body.

[1] = system: human placental aromatase; settings: cited from earlier work; for concentration for inhibition of human placental aromatase in vitro: for 5α-DHNET a partial inhibition
SD rat (SPF) = experiment: minimum lethal dose in SD rat; type: in vivo
Protocol: For example, the minimum lethal dose of 5α-DHNET for SD rat (SPF) is greater than 5,000 mg/kg.

[2] = rat, in vivo
[3] = system: NMU-induced breast carcinomas of BUF/N rats; experiment: effect on breast tumor incidence, protocol III; type: in vivo, rat
Protocol: The protocol was further modified to evaluate the generality of the effect of 5α-DHNET on breast carcinomas. […] Oophorectomy was also carried out at 3 weeks after the NMU injection. After 37 weeks of monitoring, the tumor incidence was 87%, 38%, and 19% for the control, 5α-DHNET,and OVX group, respectively. The average number of tumors per tumor carrying animal was 2.8, 1.5 and 1.0 for the central, 5α-DHNET, and OVX group, respectively.

[4] = system: NMU-induced breast carcinomas of BUF/N rats; experiment: preventive effect on incidence of NMU-induced breast carcinoma, first protocol; type: in vivo, rat
Protocol: (§1) The animal model for human mammary carcinomas developed by Gullino et al. (P. M. Gullino, H. M. Pettigrew, and F. H. Grantham, J. Natl. Cancer Inst., 54, 401-414 (1975)) was used for this evaluation of 5α-DHNET.N-Nitrosomethylurea (NMU), wet with 3% acetic acid, was dissolved in distilled water (10 mg/ml) and given in three intravenous injections at a dose of 50 mg/kg body weight to BUF/N inbred female rats of 50 days of age on the first injection. The second injection was 4 weeks and the third injection was 8 weeks after the initial administration. The onset of tumors was monitored by daily visual inspection and by palpation of the mammary regions three times a week. The increase in tumor size was monitored by vernier caliper measurements of the subcutaneous mass. One-half the average of the longest and shortest tumor diameters was taken as the value of r in the formula 4/3 πr^3 used to estimate tumor volume. 5α-DHNET in sesame oil was given i.p. daily at a dose of 50 mg/kg body weight/day for 3 weeks to BUF/N female rats having at least one tumor, 2 cm or larger. The number and size of the rumors were monitored on 12 treated and 13 vehicle-only control animals. The mean initial volume of the tumors was 5.10 and 5.53 ml for the control and treated group, respectively. While the tumors in the control group grew very rapidly, growth arrest was clearly observed in 75% (9/12) of the treated group. The death rate was lower in the treated group (3/12 in 4 weeks) than in the control (5/13 in 3 weeks). […] Averaged relative tumor volume is compared in FIG. 7. This also indicates the suppression of tumor growth by the 5α-DHNET treatment. While 24 new tumors developed in 9 control rats in 3 weeks, only 7 developed in 11 treated rats.
The preventive effect of 5α-DHNET to lower the incidence of breast carcinoma was assessed by use of the same animal model as in Example 3 but by modification of the administration protocol. The vehicle-only control was prepared as described in Example 3. Oophorectomy was carried out at the 4th week. 5α-DHNET at a dose of 50 mg/kg body weight/day was given i.p. daily for one week starting at the 4th week. The onset of tumors, their number and location in each animal were recorded daily. The results are given in FIGS. 9 and 10 and in Table 2. The control group developed tumors in 100% (16/16) of the animals by the 98th day after the first NMU injection. At this point tumor incidence for the 5α-DHNET treated and oophorectomized groups was 13% (2/16) and 38% (6/16), respectively. […] At the 180th day the death rate for the 5α-DHNET treated and oophorectomized group was 25% and 31%, respectively, compared to 69% for the control group. The mean latent period of tumor development was 72, 101, and 116 days for the control, OVX, and 5α-DHNET group, respectively.

[5] = system: human placental aromatase; experiment: in vitro assay with human placental aromatase; type: biochemical; settings: in vitro assays
Protocol: 5α-DHNET was previously found to be a very weak in vitro aromatase inhibitor (Y. Osawa, Y. Osawa, C. Yarborough & L. Borzynski, Biochem Soc. Transactions, 656-659 (1983)), requiring a 50 μM concentration for a partial inhibition of human placental aromatase in vitro.

[6] = system: NMU-induced breast carcinomas of BUF/N rats; experiment: effect on breast tumor incidence, protocol II; type: in vivo, rat
Protocol: The preventive and suppressive effect of 5α-DHNET on breast carcinomas was further examined in order to ascertain that this agent is effective under general conditions rather than limited to a specifically controlled protocol. Only a single dose of NMU was given to the BUF/N rats at 50th day of age and an oophorectomy was carried our at the 6th week after the NMU injection. The 5α-DHNET group received the agent for one week starting at the 6th week at a dose of 50 mg/kg body weight/day as given in FIG. 11. Monitoring was carried out as described in Example 4. After 41 weeks of observation, the tumor incidence was 65%, 33%, and 38% for the control, 5α-DHNET, and OVX group, respectively. The average number of tumors per tumor carrying rat was 2.6, 1.5, and 1.0 for the control, 5α-DHNET, and OVX group, respectively.

[7] = system: NMU-induced breast carcinomas of BUF/N rats; experiment: effect on growth of NMU-induced breast carcinomas; type: in vivo, rat
Protocol: as §1

[8] = system: estrus cycle of BUF/N inbred female rats; experiment: effect on the rat estrus cycle; type: in vivo; settings: for effect on the estrus cycle: single s.c. dose 50 mg/kg body weight on proestrus day
Protocol: BUF/N inbred female rats (50-80 days old) showing regular 4-day estrus cycles were selected by a daily vaginal smear test. A fine powder of the steroid sample was suspended in sesame oil (30 mg/ml) and injected subcutaneously on the proestrus day at a single dose of 50 mg/kg body weight. Vaginal smears were examined daily until normal estrus returned for at least three cycles. The results from the single injection of 5α-DHNET are given in FIG. 1 and those for 6β-bromoandrostenedione are given in FIG. 2 for comparison.

C#C[C@]1(OC(C)=O)CC[C@H]2[C@@H]3CC[C@H]4CC(=O)CC[C@@H]4[C@H]3CC[C@@]21C [5α-DHNET Ac, 5α-DHNET acetate]
in vivo ovarian aromatase inactivation (rat ovarian aromatase): 68.2%

C#C[C@]1(OC(=O)CCC)CC[C@H]2[C@@H]3CC[C@H]4CC(=O)CC[C@@H]4[C@H]3CC[C@@]21C [5α-DHNET But, 5α-DHNET butyrate]
in vivo ovarian aromatase inactivation (rat ovarian aromatase): 79.4%

C#C[C@]1(O)CC[C@H]2[C@@H]3CC[C@H]4CC(=O)CC[C@@H]4[C@H]3CC[C@@]21C [5α-DHNET, 5α-dihydro-19-norethisterone]
concentration for inhibition of human placental aromatase in vitro [1]: 50 µM
in vitro aromatase inhibitory activity ([1]; previous in vitro studies): essentially inactive
minimum lethal dose (SD rat (SPF)): greater than 5,000 mg/kg
body weight compared to control rats [2]: did not show any significant difference of body weight from the control rats
suppression of the ovarian aromatase activity (rat ovarian aromatase): 67%
in vivo ovarian aromatase inactivation (rat ovarian aromatase): 67.9%
tumor incidence ([3]; after 37 weeks, treatment 3 weeks after single NMU dose): 38%
average number of tumors per tumor carrying animal ([3]; protocol III): 1.5
tumor incidence ([4]; 98th day after first NMU injection, 50 mg/kg/day i.p. one week from 4th week, 2/16): 13%
death rate ([4]; 180th day after first NMU injection, 4/16): 25%
% Tumor Incidence ([4]; 180th day after first NMU injection, 8/16): 50%
effect on incidence of breast carcinoma and death rate ([4]; Examples 4-6, given at different times): significantly lower the incidence of breast carcinoma and the death rate as effectively as complete oophorectomy
Average No. of tumors per tumor-carrying rat ([4]; first protocol): 1.8
Mean Latent Period of tumor development ([4]; first protocol): 116 days
potency as aromatase inhibitor relative to 6α- and 6β-bromoandrostenedione [5]: thousand-fold less potent
tumor incidence ([6]; after 41 weeks, single NMU dose, 50 mg/kg/day for one week from 6th week): 33%
average number of tumors per tumor carrying rat ([6]; protocol II): 1.5
effect on growth of breast carcinomas ([7]; 50 mg/kg body weight/day daily for three weeks): significantly suppressed the growth of breast carcinomas
animals with growth arrest of tumors ([7]; 50 mg/kg body weight/day i.p. for 3 weeks, 9/12 treated): 75%
death rate ([7]; 50 mg/kg body weight/day i.p. for 3 weeks, in 4 weeks): 3/12
initially observed tumors disappeared ([7]; 3 week period, 6/47): 13%
tumors regressed ([7]; 3 week period, 20/48): 42%
tumors growing ([7]; 3 week period, 28/48): 58%
Total No. of Tumors disappeared ([7]; 3 wk): 6
Total No. of Tumors growing ([7]; 3 wk): 28
Total No. of Tumors regressed ([7]; 3 wk): 20
share of responded animals maintained without a growth of tumors after stopping administration ([7]; another 3 weeks after stopping): approximately half
Total No. of Tumors 3 wk ([7]; end of 3 wk treatment, 11 rats): 48
Total No. of Tumors newly developed ([7]; in 3 weeks, 11 treated rats): 7
Total No. of Tumors start ([7]; start of treatment, 11 rats): 47
animals with cessation of estrus cycles / animals tested ([8]; single s.c. dose 50 mg/kg body weight): 4/4
effect on the estrus cycle [8]: cessation of the estrus cycles for at least four cycles

C[C@]12CCC(=O)C=C1[C@@H](Br)C[C@@H]1[C@@H]2CC[C@]2(C)C(=O)CC[C@@H]12 [6α-bromoandrostenedione, reference compound]
concentration for inhibition of human placental aromatase in vitro [1]: 0.0082 µM
suppression of the ovarian aromatase activity (rat ovarian aromatase): 10%

C[C@]12CCC(=O)C=C1[C@H](Br)C[C@@H]1[C@@H]2CC[C@]2(C)C(=O)CC[C@@H]12 [6β-bromoandrostenedione, reference compound]
concentration for inhibition of human placental aromatase in vitro [1]: 0.056 µM
suppression of the ovarian aromatase activity (rat ovarian aromatase): 72%
effect on the estrus cycle ([8]; 50 mg/kg): no effect on the cycle; also recorded: failed to affect the estrus cycle
